{"source": "patent US8623990B2", "about": "“Polyester resin composition” (FUJIFILM Corporation, priority 2010, dated 2014)", "test": "Measurement of pKa by absorption spectrum on addition of perchloric acid", "format": "physicochemical", "conditions": "in acetonitrile, 70% perchloric acid (solvent: acetic acid) added dropwise; proton adduct at nitrogen of triazine ring", "method": "Compound (2) was dissolved in acetonitrile to give an absorbance of 1 and to this solution, 70% perchloric acid (solvent: acetic acid) was added dropwise, thereby varying the pH. At this time, the absorption spectrum of solution was measured and based on the absorbance at λmax, the proportions of a triazine-free form and a proton adduct were calculated at each pH. From the point at which these values became equal, the pKa value was determined. Here, the triazine-free form indicates Compound (2) itself, and the proton adduct indicates a compound resulting from addition of a proton to the nitrogen atom of triazine ring of Compound (2). Compounds (21), (24), (120), (m-2), (m-3), (m-4), (m-21), (m-31), (m-20) and (m-1), and as comparative compounds, (Example A1) and (Example A2) were determined for the pKa value in the same manner. The absorption spectrum was measured using a spectrophotometer, UV-3600 (trade name), manufactured by Shimadzu Corporation, and the pH was measured using a pH meter, HM60G (trade name), manufactured by To a Denpa Kogyo. Incidentally, the absorbance is a value measured at the maximum absorption wavelength of each compound."}
{"smiles": "CCC(C)CCCCCC(CCCC(C)CC)COC(=O)c1ccc(-c2nc(-c3ccccc3O)nc(-c3ccccc3O)n2)cc1", "note": "(stereo not shown) [(24)]", "values": [{"measurement": "pKa", "value": -5}]}
{"smiles": "CC(CCOC(=O)c1ccc(-c2nc(-c3ccccc3O)nc(-c3ccccc3O)n2)cc1)CC(C)(C)C", "note": "(stereo not shown) [(120)]", "values": [{"measurement": "pKa", "value": -5}]}
{"smiles": "Oc1ccccc1-c1nc(-c2cccc(Cl)c2)nc(-c2ccccc2O)n1", "note": "[(m-4)]", "values": [{"measurement": "pKa", "value": -5}]}
{"smiles": "CCCCC(CC)COC(=O)c1ccc(-c2nc(-c3ccccc3O)nc(-c3ccccc3O)n2)cc1", "note": "(stereo not shown) [Compound (21)]", "values": [{"measurement": "pKa", "value": -5}]}
